Columns and labels:
LNCaP-hr cells = assay: Antitumor test using nude mice transplanted with LNCaP-hr cells; assay type: in vivo; details: castrated nude mice, LNCaP-hr subcutaneous, 15 mg/kg orally twice daily for three weeks; for T/C (tumor volume): control 100%, start of administration 0%
Method: LNCaP-hr cells were suspended in Matrigel, and 5×10^6 cells were transplanted subcutaneously into the flank of castrated nude mice. When tumor volume reached approximately 100 mm^3, the animals were grouped based on the tumor volume, and administered orally with 15 mg/kg body weight of the compound twice daily for three weeks. The tumor volume was calculated based on the assumption that the volume of the control group was 100% and the volume of the treated group at the start of the administration was 0% (T/C %).

androgen receptors = assay: Reporter assay using LNCaP-hr cells (6k-PSA promoter, firefly luciferase); assay type: cell-based, human; details: LNCaP-hr cells with PSA promoter-luciferase, 24 hours after addition
Method: As a negative control compound, conventional AR antagonist, bicalutamide was used. 6k-PSA promoter and firefly luciferase gene were used as a PSA promoter and a reporter gene, respectively.
LNCaP-hr cells transfected with a reporter gene linked to a PSA promoter were plated on 96-well plates at a density of 50,000 cells/100 μL/well, to which the test compounds were added after the cells were cultured for 8 hours. The reporter activity was determined 24 hours after the addition of the test compounds. The suppressing activity of the test compounds on the reporter gene was calculated based on the assumption that the reporter activity in the cells without the addition of the test compounds (control group) was 100% and the reporter activity of the non-treated LNCaP-hr cells without introduction of the reporter gene was 0%.

SMILES	Antitumor activity (LNCaP-hr cells)	T/C (tumor volume) (LNCaP-hr cells)	Suppressing activity on the reporter gene (androgen receptors)
Cc1cc(-c2ccc(C#N)cc2)c(C#N)n1Cc1cc(C(F)(F)F)n[nH]1 [Compound 8]	antitumor activity was observed	T/C = −5%	Concentration-dependent suppressing activity on the reporter gene was observed
Cc1cc(-c2ccc(C#N)cc2)c(C)n1Cc1cc(C(F)(F)F)n[nH]1 [Compound 6]	antitumor activity was observed	T/C = −3%	Concentration-dependent suppressing activity on the reporter gene was observed
Cc1cc(-c2ccc(C#N)cc2)c(C)n1Cc1cn[nH]c1C(C)(C)O [Compound 9]	antitumor activity was observed	T/C = 24%	Concentration-dependent suppressing activity on the reporter gene was observed

— patent US20100119452A1, “SCREENING METHOD” (Takeda Pharmaceutical Company Limited, priority 2007, published 2010)
